Results from PubChem BioAssay (NCI).
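A five-concentration, 48-hour dose response in 96-well plates underlies each endpoint, interpolated linearly between surrounding concentrations. GI50 is the concentration that inhibits growth by half. TGI marks complete inhibition of growth.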

How the values were obtained:
Assay in all cases: NCI tumour cell line growth inhibition, 48 h
[1] = system: OVCAR-3 ovarian
[2] = system: TK-10 renal
[3] = system: SK-MEL-28 melanoma
[4] = system: COLO 205 colon
[5] = system: MALME-3M melanoma
[6] = system: HT29 colon
[7] = system: SNB-19 CNS
[8] = system: UACC-257 melanoma
[9] = system: SNB-75 CNS
[10] = system: SR leukemia

Structure (SMILES)	TGI [1] [µM]	TGI [2] [µM]	TGI [3] [µM]	TGI [4] [µM]	TGI [5] [µM]	TGI [6] [µM]	TGI [7] [µM]	TGI [8] [µM]	TGI [9] [µM]	TGI [10] [µM]	GI50 [1] [µM]	GI50 [3] [µM]	GI50 [5] [µM]	GI50 [7] [µM]	GI50 [9] [µM]	GI50 [2] [µM]	GI50 [4] [µM]	GI50 [8] [µM]	GI50 [6] [µM]
N#Cc1c(-c2ccc(Cl)cc2)cc(-c2ccc(Nc3ccnc4cc(Cl)ccc34)cc2)[nH]c1=O	> 100	> 55.3	> 100	> 100	> 100	> 100	> 96.7	> 100	> 100	> 100									
CC1C(NNC(N)=O)Oc2cc3c(cc2C1c1ccccc1O)OCO3 (stereo not given)	> 100	> 100	> 100		97.2	> 100	> 100	> 100	86.3	43.1									
O=C(NNC(=S)Nc1ccccc1)c1nsc2ccccc12	35.1	> 100	> 100	> 100		> 100	> 100	> 100	65.6	91.1									
O=C(/C(=C(/O)c1ccccc1)c1nc2ccccc2sc1=O)c1ccccc1	36.3	> 100	> 100	> 100	> 100	72.3	> 100	46.2	> 100										
O=C(CCN1CCOCC1)/C(=C/c1ccccc1)c1ccccc1	13.5		20.3	14.3	8.74	17.6	23.4	9.72	21.8										
O=c1c2cc(C(F)(F)F)ccc2sc2c(NCCCNCCO)nc3ccccc3c12	3.17		3.32		3.09		3.1		2.87		1.68	1.87	1.59	1.65	1.48				
CN1/C(=C/C=C/C=C/C=C2C(=O)c3ccccc3C2=O)C(C)(C)c2ccccc21	> 100	> 100		> 100	94.1	> 100	> 100	54.1	> 100	> 100									
C#CC(O)(c1nc2ccccc2s1)c1nc2ccccc2s1	40.8	> 100	> 100	40	> 100	77.6	> 100	88.5											
COc1ccccc1OCC(COC(=O)Nc1ccccc1)OC(=O)Nc1ccccc1 (stereo not given)	> 100	> 100	> 100	> 100	> 100	> 100	> 100	> 100	45.6										
COC(=O)[C@H](Cc1c[nH]c2ccccc12)NP(=O)(OCCC#N)OCC1OC(n2cc(C)c(=O)[nH]c2=O)CC1N=[N+]=[N-] (stereo not given in full)	> 100	> 100		> 100	> 100	> 100	> 100	> 100	> 100										
Cc1cc(-n2nnc(C(=O)O)c2-c2ccccc2)c2ccc(Cl)cc2n1	> 100	> 100	> 100	> 100	> 100	> 100	> 100	> 100	> 100										
CCc1cccc2c3c([nH]c12)-c1ccccc1NC(=O)C3	> 100	> 100	> 100	> 100		> 100	> 100	> 100	> 100										
Cc1c(CNc2ccc(C(=O)NC(CCCNC(=O)c3ccccc3C(=O)O)C(=O)O)cc2)cnc2nc(N)nc(N)c12 (stereo not given)	> 100			4.74			> 100	> 100								> 100	1.72	> 100	
CCOC(=O)c1ccc(Nc2nc3ccccc3nc2-c2cccs2)cc1	> 100	58.5	> 100	> 100	> 100		> 100	> 100	> 100	> 100									
O=C1NC(=O)c2ccccc2/C1=C/c1ccc2c(c1)OCO2	25	> 100			> 100	44.8	> 100	55.3	86.6	> 100									
Cc1ccc(S(=O)(=O)NC(=O)NC(Cc2ccc(O)cc2)C(=O)O)cc1 (stereo not given)		> 100	> 100	> 100	> 100	> 100	> 100	> 100	> 100	> 100									
Clc1sc(Cl)c2c1[C@@H](Cl)C[C@@H]2Cl	> 100	> 100	> 100	> 100	> 100	> 100		> 100	> 100	> 100									
Cc1ccc(S(=O)(=O)NC(CCC(=O)NNc2ccccc2)C(=O)NNc2ccccc2)cc1 (stereo not given)	> 100	46.5		54.1	> 100	> 100	> 100	> 100	> 100	> 100									
CC1=NN(c2cccc(Cl)c2)C2(C1=Cc1ccc(O)cc1)C(Cl)C(=O)N2c1nc2ccccc2s1 (stereo not given)	> 100	> 100	> 100			63.3		> 100		57.7									
Cc1cn(C2CCC(CO)(CF)O2)c(=O)[nH]c1=O (stereo not given)	> 100	> 100	> 100	> 100		> 100	> 100	> 100	> 100	> 100									
C1=NCCNCCNCCN=Cc2ccc(cc2)OCc2cccc(n2)COc2ccc1cc2	> 100		> 100	> 100	> 100	> 100	> 100	> 100	> 100	> 100									
O=C(COc1ccc(OCC(=O)N2C(=O)CC(=O)N(c3ccc(Cl)cc3)C2=S)cc1)N1C(=O)CC(=O)N(c2ccc(Cl)cc2)C1=S		> 100	> 100	38.5	93.5	> 100	> 100	> 100	> 100										

Structure (SMILES)	TGI [1] [µM]	TGI [2] [µM]	TGI [3] [µM]	TGI [4] [µM]	TGI [5] [µM]	TGI [6] [µM]	TGI [7] [µM]	TGI [8] [µM]	TGI [9] [µM]	TGI [10] [µM]	GI50 [1] [µM]	GI50 [3] [µM]	GI50 [5] [µM]	GI50 [7] [µM]	GI50 [9] [µM]	GI50 [2] [µM]	GI50 [4] [µM]	GI50 [8] [µM]	GI50 [6] [µM]
O=P1(N2CCOCC2)OCCO1			> 100	> 100	> 100	> 100	> 100	> 100		> 100									
CC(C)(C)C1CCC2c3c([nH]c4ccccc34)C3C(=O)N(c4ccc(C#N)cc4)C(=O)C3C2C1 (stereo not given)	90.8	63.4	36.3	> 100	37.5	20.3	> 100	82.9		> 100									
COc1ccc(-n2c(=O)c3[nH]c(=S)[nH]c3n(-c3ccc(OC)cc3)c2=S)cc1	> 100	> 100	> 100	> 100		> 100		> 100	> 100	> 100									
C#CC[C@@]12CC(=O)C[C@@H]1CCC1(C2)OCCO1 (tested in a mixture with another compound)	> 100		> 100	> 100	> 100	> 100	> 100	> 100	> 100										
COc1cc(/C=C2\CC/C(=C\c3cc(OC)c(O)c(OC)c3)C2=O)cc(OC)c1O	> 21.8	> 100		54.2	1.74	> 100	> 100	> 100	8.06	> 100									
COc1ccc(C2C3=C(N=C4SC(C(C)=O)=C(C)N42)c2ccccc2CC3)cc1 (stereo not given)	> 100		> 100	> 100		> 100	> 100	> 100	> 100										
COc1ccc(C#Cn2nnc3ccccc32)cc1	> 100	> 100	> 100	> 100	> 100	> 100	> 100	> 100		> 100									
CC[C@@]1(O)C(=O)OCc2c1cc1n(c2=O)Cc2c-1nc1ccc(O)cc1c2[Si](C)(C)C(C)(C)C	0.0752	> 92.7	10.7	1.53	0.179	4.39		0.681	0.0162	< 0.0112									
CN1CCN(Cc2c[nH]c3c2C(=O)c2c(c(O)c4ccccc4c2O)C3=O)CC1	33.2	14.9	38.3	70.7	29.3	> 100	52	33.1	55.7		11.2	19.6	12.7	22.4	26.6	1.46	31.7	15.9	26.3
COC(C/C(=C/CO[Si](C(C)C)(C(C)C)C(C)C)C(=O)N(COCC[Si](C)(C)C)c1ccccc1I)OC	46	> 100	50	> 100		> 100	> 100	69.9	> 100	> 100									
Cc1nc2cc(F)c(F)cc2[nH]c1=O	> 100	> 100	> 100	> 100	> 100	> 100	> 100	> 100	> 100										
N#Cc1nc2cc(Cl)ccc2nc1N1CCN(c2ccc([N+](=O)[O-])cc2)CC1	> 100	> 100	> 100	> 100		> 100	> 100	> 100	> 100										
Cc1cc(C)c2c(c1)CC1(Cc3cc(C)c(C)cc3C1=O)C2=O (stereo not given)	> 100	> 100	> 100	> 100	> 100		> 100	> 100	> 100	> 100									
C#C[C@]1(O)CC[C@H]2[C@@H]3CCC4=C/C(=N/NC(=O)c5cccc6c(=O)c7ccccc7[nH]c56)CCC4[C@H]3CC[C@@]21C (stereo not given in full)	> 100	> 100		> 100	68.1	> 100	> 100	> 100	> 100	> 100									
CSC(SC)=C(C#N)C(=O)Nc1cccc(Cl)c1		> 100	> 100	> 100	> 100	> 100	> 100	> 100	> 100										
CC1CC[C@@]2(OC1)O[C@H]1[C@H](O)[C@H]3[C@@H]4CC[C@H]5C[C@@H](OC6OC(CO)C(OC7OC(CO)C(O)C(OC8OCC(O)C(O)C8O)C7OC7OC(CO)C(O)C(O)C7OC7OC(CO)C(O)C(O)C7O)C(O)C6O)[C@H](O)C[C@]5(C)[C@H]4CC[C@]3(C)[C@H]1[C@@H]2C (stereo not given in full)	> 10	> 10	> 10	> 10	> 10	> 10	> 10	> 10	> 10										
N#CC1(C#N)C(C#N)(C#N)C1(C#N)C(N)=O		> 100	> 100	> 100	> 100	> 100	> 100	> 100		> 100									
Nc1cc2c(c3ccccc13)C(CCl)CN2C(=O)c1cc2cc(NC(=O)Nc3ccc4[nH]c(C(=O)N5CC(CCl)c6c5cc(N)c5ccccc65)cc4c3)ccc2[nH]1 (stereo not given)	2.41	3.75	2.52	2.07	2.03	2.01		3.24	0.73	1.13									
Cc1cc2[nH]c3c(C#N)c(-c4ccccc4)c(N=Nc4ccc(F)cc4)c(=O)n3c2cc1C	39.8	> 100	> 100	> 100			> 100	> 100	> 100										
CN(Cc1cnc2nc(N)nc(N)c2n1)c1ccc(C(=O)NC23CC4CC(CC(C4)C2)C3)cc1	30.5	30.8		24	26.3		18.6	25.6	38.9	> 100									
COc1cccc(N=N/C(=N/NC(=O)c2ccc(C)cc2)c2ccc(N(CCC#N)CCC#N)cc2OC)c1	> 100	> 100	> 100	> 100	> 100	35.5	> 100	> 100		> 100									
